Tests used:
[1] = Texture analysis (low-pressure compression, TA-XTplus Texture analyser); format: physicochemical; conditions: for Compressed density index, CDI: 200 mg sample, cyclic compression up to 20 steps, CDI below 15 is considered good flowability
Protocol: A simple and low sample consuming method for evaluation of the packing density of powders were obtained as compression profiles under low pressures using a die and a flat-faced punch fitted on a TA-XTplus Texture analyser (Stable Micro Systems Ltd., Godalming, UK). The small amount of 200 mg of sample was compressed in a steel mould (with the rate of displacement 0.03 mm/s). Also, a cyclic procedure (similar to tapping) was performed at maximal compressive displacement 0.5 mm, then retracting, relaxation for 15 s and then repeated compressive steps (altogether up to 20 steps).
Density at 0.2 MPa and CDI data of Neratinib maleate Form monohydrate and Neratinib maleate Form B6 (prepared according to example 12) are presented in Table 2.

[2] = Solubility test according to European Pharmacopoeia 7.0, 5.11; format: physicochemical; conditions: for Solubility: Ph. Eur. descriptive term
Protocol: Solubility test was performed according to European Pharmacopoeia 7.0, page 637, 5.11.

CCOc1cc2ncc(C#N)c(Nc3ccc(OCc4ccccn4)c(Cl)c3)c2cc1NC(=O)/C=C/CN(C)C [Neratinib base B6, (E)-N-{4-[3-Chloro-4-(2-pyridinylmethoxy)anilino]-3-cyano-7-ethoxy-6-quinolinyl}-4-(dimethylamino) -2-butenamide]
Density at 0.2 MPa ([1]; 200 mg sample compressed in steel mould, 0.03 mm/s, listed as crystalline form B6 of Neratinib base): higher than that of the Neratinib maleate monohydrate
Compressed density index, CDI ([1]; listed as Neratinib base Form B6): 10.89
Compressed density index, CDI ([1]; listed as crystalline form B6 of Neratinib base): below 15
Solubility compared with Neratinib maleate monohydrate ([2]; all tested conditions (pH 1.1, 4.5, 6.8), listed as Neratinib base form B6): good correlation
Solubility ([2]; pH = 1.1): sparingly
Solubility ([2]; pH = 4.5): slightly
Solubility ([2]; pH = 6.8): very slightly
